Data on 21 compounds can be found in ChEMBL document CHEMBL1133923, “Evolution of anti-HIV drug candidates. Part 3: Diarylpyrimidine (DAPY) analogues” (Bioorg Med Chem Lett, 2001).

Some results are limits rather than exact numbers.

Common to all, as to test: microbe, parasite or virus in culture
For assay [1], the system named is Human immunodeficiency virus 1. It is filed as functional, organism-based, MT4.
The subject of assay [2] is Human immunodeficiency virus 1. The following applies: Human immunodeficiency virus 1, MT4.
The test system of assay [3] is Human immunodeficiency virus 1. The following applies: Human immunodeficiency virus 1, MT4. This is another data set of the same source.
The test system of assay [4] is Human immunodeficiency virus 1. Particulars: Human immunodeficiency virus 1, MT4. This is another data set of the same source.
Assay [5] concerns Human immunodeficiency virus 1. Particulars: Human immunodeficiency virus 1, MT4. The source holds these as a separate data set.
For assay [6], the system named is Human immunodeficiency virus 1. The following applies: Human immunodeficiency virus 1, MT4. This is another data set of the same source.
Assay [7] concerns Human immunodeficiency virus 1. The following applies: Human immunodeficiency virus 1, MT4. The source holds these as a separate data set.
The mark [8] stands for this setting: Human immunodeficiency virus 1, MT4.

As for `Cc1cc(C)c(Oc2ccnc(Nc3ccc(C#N)cc3)n2)c(C)c1`, the IC50 (as a rule, the concentration that inhibits the measured activity by half) in assay [1] (setting [8]) turned out to be 1100 nM; in assay [2] it was 8200 nM; in assay [3], 22 nM; in assay [4], 3 nM; in assay [5], 38 nM; in assay [6], 55 nM. The IC50 in assay [7] amounted to 2.9 nM.

With `Cc1cc(C)c(Nc2nc(Nc3ccc(C#N)cc3)ncc2Br)c(C)c1`, the IC50 in assay [1] (setting [8]) was determined as 283 nM; in assay [2] it was 348 nM; in assay [3] it was 11 nM; in assay [4], 7.3 nM; in assay [5], 36 nM; in assay [6], 27 nM. Besides, in assay [7], the IC50 is 5.5 nM.

In the case of `Cc1cc(C#N)cc(C)c1Oc1nc(Nc2ccc(C#N)cc2)ncc1Br`, the IC50 in assay [1] (setting [8]) was 25 nM; in assay [2], 49 nM; in assay [3] it was 6.6 nM; in assay [4], 1.4 nM; in assay [5] it was 22 nM; in assay [6], 5.9 nM. This compound also registered an IC50 in assay [7] of 1.4 nM.

In the case of `Cc1cc(C)c(Nc2nc(Nc3ccc(C#N)cc3)ncc2C)c(C)c1`, the IC50 in assay [1] (setting [8]) was 53 nM; in assay [2] it was greater than 100000 nM; in assay [3], 12 nM; in assay [4] it was 2.6 nM; in assay [5] it was 12 nM; in assay [6] it was 18 nM. 1.7 nM corresponded to half-maximal inhibition in assay [7] (IC50).

With `Cc1cc(Br)c(Nc2ccnc(Nc3ccc(C#N)cc3)n2)c(Br)c1`, the IC50 in assay [1] (setting [8]) is 133 nM; in assay [2], greater than 100000 nM; in assay [3], 3 nM; in assay [4], 3 nM; in assay [5] it was 3.4 nM; in assay [6] it was greater than 100000 nM. This compound yielded an IC50 in assay [7] of 0.7 nM.

On to `Cc1cc(C#N)cc(C)c1Nc1nc(Nc2ccc(C#N)cc2)ncc1Br`, for which the IC50 stood at 32 nM in assay [1] (mt4); 37 nM in assay [2]; 7 nM in assay [3]; 0.4 nM in assay [4]; 9.6 nM in assay [5]; 3.3 nM in assay [6]. In addition, in assay [7], 0.4 nM corresponded to half-maximal inhibition (IC50).

`Cc1cc(C#N)cc(C)c1Nc1nc(Nc2ccc(C#N)cc2)ncc1C#N`: the IC50 worked out at 181 nM in assay [1] (setting [8]); 312 nM in assay [2]; 91 nM in assay [3]; 2.6 nM in assay [4]; 76 nM in assay [5]; 8.6 nM in assay [6]. In addition, the IC50 in assay [7] worked out at 0.5 nM.

On to `Cc1cc(C#N)cc(C)c1Oc1nc(Nc2ccc(C#N)cc2)ncc1[N+](=O)[O-]`, for which the 50% inhibitory concentration (IC50) in assay [1] (setting [8]) was 194 nM; in assay [2] it was greater than 10000 nM; in assay [3], 121 nM; in assay [4], 10 nM; in assay [5], 304 nM; in assay [6], 782 nM. In addition, the half-inhibitory concentration (IC50) in assay [7] is 18 nM.

For `Cc1cc(Br)cc(C)c1Sc1ccnc(Nc2ccc(C#N)cc2)n1`, the IC50 was found to be 354 nM in assay [1] (setting [8]); 3890 nM in assay [2]; 174 nM in assay [3]; 39 nM in assay [4]; 68 nM in assay [5]; 44 nM in assay [6]. In assay [7], half-maximal inhibition (IC50) was put at 5.7 nM.

For the compound `Cc1cc(C#N)cc(C)c1Oc1nc(Nc2ccc(C#N)cc2)ncc1Cl`, the IC50 in assay [1] (setting [8]) is 38 nM; in assay [2], 138 nM; in assay [3], 7.5 nM; in assay [4], 2.6 nM; in assay [5], 34 nM; in assay [6], 4.8 nM. In assay [7], this compound had an IC50 of 1.4 nM.

With `Cc1cc(C#N)cc(C)c1Nc1ccnc(Nc2ccc(C#N)cc2)n1`, the IC50 amounted to 37 nM in assay [1] (mt4); 1090 nM in assay [2]; 34 nM in assay [3]; 1.9 nM in assay [4]; 7.1 nM in assay [5]; 7.8 nM in assay [6]. For the same compound, the midpoint of inhibition in assay [7], the IC50, lay at 0.4 nM.

On to `Cc1cc(Br)cc(C)c1Nc1ccnc(Nc2ccc(C#N)cc2)n1`, for which the IC50 in assay [1] (setting [8]) was 150 nM; in assay [2], greater than 100000 nM; in assay [3] it was 76 nM; in assay [4], 12 nM; in assay [5], 17 nM; in assay [6], 69 nM. Besides, the midpoint of inhibition in assay [7], the IC50, lay at 2.3 nM.

Consider `Cc1cc(C#N)cc(C)c1Oc1nc(Nc2ccc(C#N)cc2)ncc1N`, for which the IC50 in assay [1] (setting [8]) came out at 14 nM; in assay [2], 282 nM; in assay [3], 16 nM; in assay [4] it was 1.3 nM; in assay [5], 9.3 nM; in assay [6] it was 5.7 nM. Also, the IC50 in assay [7] turned out to be 1 nM.

In the case of `Cc1cc(C)c(Nc2ccnc(Nc3ccc(C#N)cc3)n2)c(C)c1` [DAPIVIRINE], the IC50 in assay [1] (setting [8]) is 44 nM; in assay [2] it was greater than 10000 nM; in assay [3], 18 nM; in assay [4], 4.3 nM; in assay [5], 7.5 nM; in assay [6], 48 nM. The IC50 in assay [7] stood at 1 nM.

As to `C=Cc1cnc(Nc2ccc(C#N)cc2)nc1Nc1c(C)cc(C)cc1C`, the IC50 is 106 nM in assay [1] (setting [8]); greater than 100000 nM in assay [2]; 35 nM in assay [3]; 5.8 nM in assay [4]; 36 nM in assay [5]; 29 nM in assay [6]. Further, it took 2.5 nM to reach half-maximal inhibition in assay [7] (IC50).

As to `Cc1cc(C#N)cc(C)c1Oc1nc(Nc2ccc(C#N)cc2)nc(N)c1Br` [ETRAVIRINE], the IC50 in assay [1] (setting [8]) was 4.3 nM; in assay [2], 19 nM; in assay [3], 3.3 nM; in assay [4], 1.2 nM; in assay [5], 7 nM; in assay [6], 4.6 nM. In assay [7], this compound returned an IC50 of 1.4 nM.

As for `Cc1cc(C#N)cc(C)c1Oc1ccnc(Nc2ccc(C#N)cc2)n1`, the IC50 worked out at 94 nM in assay [1] (mt4); 798 nM in assay [2]; 73 nM in assay [3]; 2.7 nM in assay [4]; 37 nM in assay [5]; 19 nM in assay [6]. In assay [7], the IC50 came to 1.1 nM.

In the case of `Cc1cc(C#N)cc(C)c1Nc1nc(Nc2ccc(C#N)cc2)ncc1Cl`, the IC50 was 69 nM in assay [1] (setting [8]); 144 nM in assay [2]; 5.2 nM in assay [3]; 0.9 nM in assay [4]; 14 nM in assay [5]; 4.7 nM in assay [6]. For the same compound, inhibition in assay [7] was half-maximal at 1.2 nM (IC50).

On to `Cc1cnc(Nc2ccc(C#N)cc2)nc1Nc1c(C)cc(C#N)cc1C`, for which the IC50 is 162 nM in assay [1] (setting [8]); greater than 10000 nM in assay [2]; 16 nM in assay [3]; 1.7 nM in assay [4]; 12 nM in assay [5]; 16 nM in assay [6]. In addition, half-maximal inhibition in assay [7] (IC50) required 0.8 nM.

As for `C#Cc1cc(C)c(Oc2ccnc(Nc3ccc(C#N)cc3)n2)c(C)c1`, the IC50 worked out at 793 nM in assay [1] (setting [8]); 4190 nM in assay [2]; 185 nM in assay [3]; 12 nM in assay [4]; 171 nM in assay [5]; 50 nM in assay [6]. In assay [7], this compound returned a concentration for half-maximal inhibition (IC50) of 5.5 nM.

Take `Cc1cc(Cl)cc(C)c1Nc1ccnc(Nc2ccc(C#N)cc2)n1`: the IC50 in assay [1] (setting [8]) was 401 nM; in assay [2], greater than 10000 nM; in assay [3] it was 327 nM; in assay [4], 13 nM; in assay [5] it was 19 nM; in assay [6] it was 115 nM. Further, in assay [7], half-maximal inhibition (IC50) was put at 2.1 nM.
